Holding throughout (assay type): cell-based
One data set relates to microorganisms tested. Nature of the data set: Antimicrobial activity (growth inhibition, MIC). The note with it: growth of the microorganisms tested. How it is done: (§1) In further embodiment of the present invention, for determining antimicrobial activity, antimicrobial activity was assayed as follows: Different concentrations of peptides were added to 1 ml of synthetic medium [KH2PO4, 10.5 g; K2HPC>4, 4.5 g; (NH4)2SO4, 1 g; MgSO4, 0.1 g; L-arginine, 0.1 g and glucose 1% for one litre of medium] for E. coli or nutrient broth for other microorganisms, containing an inocula of the test organism adjusted to ˜10^6 CFU/ml. Microbial growth was determined by monitoring the increase in ODeoo after incubating under aerobic conditions at 37° C. for 6-8 h (30° C. for P. aeruginosa). The bactericidal activity of the peptides was determined by plating suitably diluted cultures after incubation with the peptides on nutrient agar plates. The plates were incubated at 37° C. for 18 h for colony counting. Outer membrane permeabilization assays were done by fluorescent monitoring of uptake of N-phenyl-1-N-naphthyl amine (NPN) (26). […] The excitation monochromator was set at 350 nm and emission at 420 nm was continuously monitored after addition of the peptide from an aqueous stock solution. […] Inner membrane permeability of E. coli W 160.37 was monitored by measuring the p-galactosidase activity in preinduced cells (with 5×10′^4 M IPTG), in the presence of different concentration of the peptide using 0-nitro phenyl-3-D-galactoside (ONPG)(27).

Another data set has as its system E. coli. Nature of the data set: Bactericidal activity by plating and colony counting. The note with it: on E. coli. How it is done: as §1
The subject of another data set is rat erythrocytes. How it is done:
In further embodiment of the present invention, hemolytic activity of the peptides was assessed on freshly isolated rat erythrocytes. Heparinized rat blood in saline was initially centrifuged at 1000×g for 10 min to remove the buffy coat. The erythrocyte suspension was further washed thrice with 5 mM Hepes, pH 7.4 containing 150 mM NaCl. Aliquots of cell suspension ( 10^6 cells) in eppendorf tubes were incubated with the peptide in […]° C. for 30 min with gentle mixing. The tubes were then centrifuged and the absorbance of the supernatants was measured at 540 nm. The lysis obtained with 1% triton X 100 was taken as 100%. FIG. 5. Hemolysis of rat erythrocytes as a function of peptide concentration concentration Erythrocytes (-10^6/ml) were incubated in Hepes buffered isotonic saline containing various concentrations of SPFK analogs. SPFK (A). Other symbols same as that in FIG. 1.

“Also recorded” adds a separate entry of the source. Square brackets hold non-standard residues; d marks the D form. Peptide text beside a SMILES is read from it. Some results are limits rather than exact numbers.

Consider `CC[C@H](C)[C@H](NC(=O)[C@H](Cc1c[nH]c2ccccc12)NC(=O)[C@H](CCCCN)NC(=O)[C@H](CO)NC(=O)[C@@H](CC(C)C)NC(=O)[C@H](Cc1ccccc1)NC(=O)[C@@H](NC(=O)[C@H](CCCCN)NC(=O)[C@@H](CC(C)C)NC(=O)[C@H](CC(C)C)NC(=O)[C@H](CCCCN)NC(=O)[C@@H]1CCCN1)[C@@H](C)O)C(=O)NCC(N)=O` [DSam] (H-PKL[dL]KTF[dL]SKWIG-NH2; N-terminus assumed), for which the “antimicrobial activity / MIC (in words)” value with microorganisms tested was “exhibits activity with MIC's comparable to that of SPFK and its retro isomers; also recorded: MICs comparable to that of SPFK and the retro analogs”. Besides, in the data set on E. coli, the bactericidal concentration is > 50 µg/mL and the bacteriostatic concentration turned out to be 30 µg/L.

`CC[C@H](C)[C@H](NC(=O)[C@H](Cc1c[nH]c2ccccc12)NC(=O)[C@H](CCCCN)NC(=O)[C@H](CO)NC(=O)[C@@H](CC(C)C)NC(=O)[C@H](Cc1ccccc1)NC(=O)[C@@H](NC(=O)[C@H](CCCCN)NC(=O)[C@@H](CC(C)C)NC(=O)[C@H](CC(C)C)NC(=O)[C@H](CCCCN)NC(=O)[C@@H]1CCCN1)[C@@H](C)O)C(=O)NCC(=O)O` [DSac] (H-PKL[dL]KTF[dL]SKWIG-OH): the “hemolytic activity (in words)” value in the data set with rat erythrocytes is “very little hemolytic activity”.

Source of the values: patent US20030186888A1, “Diastereo analog of peptide SPFK-amide with selective anti-microbial activity and a method thereof” (priority 2002, published 2003).
